{"source": "patent US12226446B2", "about": "“WS-635 uses thereof in medicine” (WATERSTONE PHARMACEUTICALS(WUHAN) CO., LTD., priority 2019, dated 2025)", "key": {"PSD-95": {"test_system": "PSD-95", "test": "Western blot of brain PSD-95 after anesthesia/surgery", "type": "in vivo, mice", "details": "26.4 mg/kg IP", "text": "(§1) 9-month-old C57BL/J6 female mice were adaptive in lab for 3 days. The mice were randomly assigned to the anesthesia/surgery group or control group by weight. […] Specifically, the inventors anesthetized each of the mice using 1.4% isoflurane in 100% oxygen in a transparent acrylic chamber. Fifteen minutes after the induction, the inventors moved the mouse out of the chamber. Isoflurane anesthesia was maintained via a cone device, and one 16-gauge needle was inserted into the cone near the nose of the mouse to monitor the concentration of isoflurane. […]\nBrain Tissue Harvest, Lysis and Protein Quantification. […] Levels of interleukin-6 (IL-6) and postsynaptic density (PSD)-95 in the cortex and hippocampus of mice will be assessed. […] The lysates will be collected, centrifuged at 10,000 rpm for 5 minutes at 4° C., and quantified for total proteins by bicinchoninic acid (BCA) protein assay kit (Pierce, Iselin, NJ). […]\nWestern Blot Analysis. […] Western blot quantification was performed as described. Briefly, signal intensity was analyzed using a Bio-Rad (Hercules, CA) image program (Quantity One). The inventors quantified Western blots in two steps, first, the inventors used β-Actin levels to normalize (e.g., determine the ratio of PSD-95 to β-Actin amount) protein levels and control for loading differences in the total protein amount. […]"}, "synaptophysin": {"test_system": "synaptophysin", "test": "Western blot of brain synaptophysin after anesthesia/surgery", "type": "in vivo, mice", "details": "26.4 mg/kg IP"}, "ATP": {"test_system": "ATP", "test": "brain ATP measurement after anesthesia/surgery", "type": "in vivo, mice", "details": "26.4 mg/kg IP", "text": "as §1, with “isoflurane. The inventors made a longitudinal midline incision from the xiphoid to the 0.5 centimeter proximal pubic symphysis on the skin, abdominal muscles and peritoneum. The inventors then sutured the incision layer by layer with 5-0 Vicryl thread.” for “isoflurane.”\nATP Measurement. The levels of ATP in the cortex of mice (N=6 in each group) were determined by the ATP Colorimetric/Fluorometric Assay Kit following the protocol provided by the manufacturer (Abcam, Cambridge, MA). […] The amount of fluorescence will be measured and the levels of ATP in the experimental samples will be calculated from the standard curve made from samples containing a known amount of ATP."}, "[1]": {"test_system": "anesthesia/surgery-induced cognitive impairment", "test": "Fear Conditioning Test (FCT)", "type": "in vivo, mice", "details": "52.8 mg/kg IP; Tone test 48 hours, Context test 7 days after anesthesia/surgery; FIG. 6A-6D", "text": "(§2) 9-month-old C57BL/J6 female mice were adaptive in lab for 3 days. The mice were randomly assigned to the anesthesia/surgery group or control group by weight. […] Specifically, the inventors anesthetized each of the mice using 1.4% isoflurane in 100% oxygen in a transparent acrylic chamber. Fifteen minutes after the induction, the inventors moved the mouse out of the chamber. Isoflurane anesthesia was maintained via a cone device, and one 16-gauge needle was inserted into the cone near the nose of the mouse to monitor the concentration of isoflurane. The inventors made a longitudinal midline incision from the xiphoid to the 0.5 centimeter proximal pubic symphysis on the skin, abdominal muscles and peritoneum. The inventors then sutured the incision layer by layer with 5-0 Vicryl thread.\n(§3) The inventors applied EMLA cream (2.5% lidocaine and 2.5% prilocaine) to the incision site at the end of the procedure, and then every eight hours until the euthanasia of the mice, to treat the pain associated with the incision. […]\nThe first tone test was performed at 90 minutes after the end of the pairing. […] The “freezing behavior” was analyzed by Any-Maze (freezing on threshold: 10; freezing off threshold: 20; minimum freezing duration: one second) (Stoelting). The percentage of freezing time was calculated by dividing the actual freezing time with the observed time (180 seconds)."}, "[2]": {"test_system": "anesthesia/surgery-induced cognitive impairment", "test": "Barnes Maze Test", "type": "in vivo, mice", "details": "26.4 mg/kg and 13.2 mg/kg IP; one week after anesthesia/surgery; FIG. 7A-7J", "text": "as §2, §3\nOne week after anesthesia/surgery, animals were subjected to Barnes maze to test their spatial learning and memory. […] The latency and number of errors to find the target box during each trial were recorded with the assistance of ANY-Maze video tracking system."}, "IL-6": {"test_system": "IL-6", "test": "brain IL-6 levels after anesthesia/surgery", "parameters": "species or system mice", "details": "mouse, in vivo", "protocol": "Brain Tissue Harvest, Lysis and Protein Quantification. Different mice will be used for the harvest of brain tissue. Levels of interleukin-6 (IL-6) and postsynaptic density (PSD)-95 in the cortex and hippocampus of mice will be assessed. The brain tissues (cortex and hippocampus) of the mice will be harvested immediately at the end of the anesthesia/surgery by decapitation. The harvested brain tissues will be homogenized on ice using immunoprecipitation buffer (10 mM Tris-HCl, pH 7.4, 150 mM NaCl, 2 mM EDTA, 0.5% Nonidet P-40) plus protease inhibitors ([…]). The lysates will be collected, centrifuged at 10,000 rpm for 5 minutes at 4° C., and quantified for total proteins by bicinchoninic acid (BCA) protein assay kit (Pierce, Iselin, NJ). The brain tissues will then be subjected to Western Blot."}, "ROS": {"test_system": "ROS", "test": "brain ROS levels after anesthesia/surgery", "parameters": "species or system mice", "details": "mouse, in vivo"}, "cyclophilin A": {"biological_target": "cyclophilin A (Homo sapiens, UniProt P62937)", "sequence (P62937 whole entry, species assumed)": "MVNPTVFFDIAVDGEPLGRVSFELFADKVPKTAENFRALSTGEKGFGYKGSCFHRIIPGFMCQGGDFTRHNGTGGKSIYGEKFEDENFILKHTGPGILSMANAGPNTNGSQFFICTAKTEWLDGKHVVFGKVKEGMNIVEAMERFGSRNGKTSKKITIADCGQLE", "details": "cited from earlier work"}, "calcineurin": {"test_system": "calcineurin", "details": "at concentrations up to 2 μM; cited from earlier work"}, "cytochrome P450 1A2": {"test_system": "cytochrome P450 1A2", "details": "cited from earlier work"}, "cytochrome P450 2B6": {"test_system": "cytochrome P450 2B6", "details": "cited from earlier work"}, "cytochrome P450 3A4": {"test_system": "cytochrome P450 3A4", "details": "cited from earlier work"}, "P-glycoprotein": {"biological_target": "P-glycoprotein (Homo sapiens, UniProt P08183)", "sequence (P08183 whole entry)": "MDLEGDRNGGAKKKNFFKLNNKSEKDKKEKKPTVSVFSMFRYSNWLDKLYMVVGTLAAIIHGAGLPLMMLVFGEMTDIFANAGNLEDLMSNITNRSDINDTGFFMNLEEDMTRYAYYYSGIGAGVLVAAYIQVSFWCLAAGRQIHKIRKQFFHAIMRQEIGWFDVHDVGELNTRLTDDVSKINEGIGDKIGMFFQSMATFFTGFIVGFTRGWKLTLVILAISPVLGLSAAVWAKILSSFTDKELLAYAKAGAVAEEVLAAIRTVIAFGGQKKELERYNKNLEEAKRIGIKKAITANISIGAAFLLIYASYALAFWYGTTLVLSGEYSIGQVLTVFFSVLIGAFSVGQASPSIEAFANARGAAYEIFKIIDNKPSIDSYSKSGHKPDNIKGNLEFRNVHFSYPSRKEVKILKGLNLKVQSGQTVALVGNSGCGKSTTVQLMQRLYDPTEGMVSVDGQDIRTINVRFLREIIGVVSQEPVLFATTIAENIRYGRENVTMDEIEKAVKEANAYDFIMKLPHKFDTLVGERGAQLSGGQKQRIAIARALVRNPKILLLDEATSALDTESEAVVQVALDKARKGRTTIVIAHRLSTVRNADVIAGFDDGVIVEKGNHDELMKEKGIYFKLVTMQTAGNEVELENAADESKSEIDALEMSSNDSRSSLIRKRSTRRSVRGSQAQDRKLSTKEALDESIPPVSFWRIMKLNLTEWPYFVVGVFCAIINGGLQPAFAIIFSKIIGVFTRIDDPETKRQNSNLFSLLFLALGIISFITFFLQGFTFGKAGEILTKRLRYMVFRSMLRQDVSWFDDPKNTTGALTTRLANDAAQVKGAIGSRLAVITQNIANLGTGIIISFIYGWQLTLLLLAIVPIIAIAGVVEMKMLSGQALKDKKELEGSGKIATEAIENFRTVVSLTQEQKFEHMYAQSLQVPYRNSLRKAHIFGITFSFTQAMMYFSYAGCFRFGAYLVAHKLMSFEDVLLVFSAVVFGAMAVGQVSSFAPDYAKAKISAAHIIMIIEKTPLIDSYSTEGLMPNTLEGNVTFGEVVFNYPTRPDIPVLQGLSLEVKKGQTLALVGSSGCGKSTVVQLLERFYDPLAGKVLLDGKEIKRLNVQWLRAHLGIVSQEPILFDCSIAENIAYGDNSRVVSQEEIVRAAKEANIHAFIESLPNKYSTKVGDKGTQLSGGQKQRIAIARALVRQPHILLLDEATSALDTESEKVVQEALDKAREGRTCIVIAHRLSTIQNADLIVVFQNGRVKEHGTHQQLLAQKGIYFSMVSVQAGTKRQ", "details": "cited from earlier work"}, "stimulated Jurkat cells": {"test_system": "stimulated Jurkat cells", "details": "cited from earlier work"}, "[3]": {"test_system": "stimulated human peripheral blood mononuclear cells", "details": "cited from earlier work"}, "hepatitis C virus (HCV) [4]": {"test_system": "hepatitis C virus (HCV)", "details": "in vitro; cited from earlier work"}, "hepatitis C virus (HCV) [5]": {"test_system": "hepatitis C virus (HCV)", "details": "two-drug combination, in vitro; cited from earlier work"}, "[6]": {"details": "multiple animal species, cited from earlier work"}}}
{"smiles": "C/C=C/C[C@@H](C)[C@@H](O)[C@H]1C(=O)N[C@@H](CC)C(=O)N(C)[C@H](SCCN(C)C)C(=O)N(C)[C@@H](CC(C)(C)O)C(=O)N[C@@H](C(C)C)C(=O)N(C)[C@@H](CC(C)C)C(=O)N[C@@H](C)C(=O)N[C@H](C)C(=O)N(C)[C@@H](CC(C)C)C(=O)N(C)[C@@H](CC(C)C)C(=O)N(C)[C@@H](C(C)C)C(=O)N1C", "note": "[WS-635, (3S,6S,9S,12R,15S,18S,21S,24S,27R,30S,33S)-27-((2-(dimethylamino)ethyl)thio)-30-ethyl-33-((1R,2R,E)-1-hydroxy-2-methylhex-4-en-1-yl)-24-(2-hydroxy-2-methylpropyl)-6,9,18-tri isobutyl-3,21-diisopropyl-1,4,7,10,12,15,19,25,28-nonamethyl-1,4,7,10,13,16,19,22,25,28,31-undecaazacyclotritriacontan-2,5,8,11,14,17,20,23,26,29,32-undecaone]", "values": [{"measurement": "anesthesia/surgery-induced decrease of PSD-95 level in cortex", "setting": "PSD-95; cortex, FIG. 3", "result": "mitigate"}, {"measurement": "anesthesia/surgery-induced decrease of PSD-95 level in hippocampus", "setting": "PSD-95; hippocampus, FIG. 4", "result": "mitigate"}, {"measurement": "anesthesia/surgery-induced decrease of synaptophysin level in cortex", "setting": "synaptophysin; cortex, FIG. 3", "result": "mitigate"}, {"measurement": "anesthesia/surgery-induced decrease of synaptophysin level in hippocampus", "setting": "synaptophysin; hippocampus, FIG. 4", "result": "mitigate"}, {"measurement": "anesthesia/surgery-induced decrease of ATP level in cortex", "setting": "ATP; cortex, FIG. 5A", "result": "mitigate"}, {"measurement": "anesthesia/surgery-induced decrease of ATP level in hippocampus", "setting": "ATP; hippocampus, FIG. 5B", "result": "mitigate"}, {"measurement": "anesthesia/surgery-induced reduction in freezing time", "setting": "[1]", "result": "mitigated"}, {"measurement": "anesthesia/surgery-induced decrease in escape speed", "setting": "[2]", "result": "mitigated"}, {"measurement": "anesthesia/surgery-induced increase in escape latency", "setting": "[2]", "result": "mitigated"}, {"measurement": "anesthesia/surgery-induced changes in brain levels of IL-6", "setting": "IL-6", "result": "attenuate"}, {"measurement": "anesthesia/surgery-induced changes in brain levels of ROS", "setting": "ROS", "result": "attenuate"}, {"measurement": "inhibition of peptidyl prolyl isomerase activity of cyclophilin A", "setting": "cyclophilin A", "result": "nanomolar concentrations"}, {"measurement": "inhibition of calcineurin phosphatase activity", "setting": "calcineurin", "result": "no detectable inhibition"}, {"measurement": "induction of cytochrome P450 1A2", "setting": "cytochrome P450 1A2", "result": "did not induce"}, {"measurement": "induction of cytochrome P450 2B6", "setting": "cytochrome P450 2B6", "result": "did not induce"}, {"measurement": "induction of cytochrome P450 3A4", "setting": "cytochrome P450 3A4", "result": "did not induce"}, {"measurement": "inhibition of P-glycoprotein", "setting": "P-glycoprotein", "result": "weak inhibitor"}, {"measurement": "substrate for P-glycoprotein", "setting": "P-glycoprotein", "result": "poor substrate"}, {"measurement": "inhibition of interleukin-2 secretion compared with cyclosporine", "setting": "stimulated Jurkat cells", "result": "weaker inhibitor"}, {"measurement": "inhibition of interleukin-2 secretion compared with cyclosporine", "setting": "[3]", "result": "weaker inhibitor"}, {"measurement": "suppression of HCV replication", "setting": "hepatitis C virus (HCV) [4]", "result": "potent suppression"}, {"measurement": "antiviral activity in combination with alpha interferon 2b", "setting": "hepatitis C virus (HCV) [5]", "result": "synergistic antiviral activity"}, {"measurement": "antiviral activity in combination with ribavirin", "setting": "hepatitis C virus (HCV) [5]", "result": "additive antiviral activity"}, {"measurement": "oral bioavailability", "setting": "[6]", "result": "orally bioavailable"}, {"measurement": "blood and liver concentrations of parent drug versus 50% effective dose in replicon assay", "setting": "[6]; oral", "result": "exceeded the 50% effective dose"}]}
